Data: patent publication US11529361B2, “Halogenated salicylanilides for treating Clostridium infections” (UNION therapeutics A/S, priority 2015, dated 2022)
Values after ≈ are worked out from the molar mass of the structure shown. Read-outs that look alike come from different tables or passages of the source.

Columns and labels:
[1] = tested on: 24 clinical isolate strains of C. difficile; test: Additional MIC determinations, antibacterial activity by OD600 (Example 3); format: cell-based, Clostridium difficile
[2] = tested on: C. difficile clinical isolates; test: MIC determination by microbroth dilution per CLSI guideline (Example 1); format: cell-based, Clostridium difficile; conditions: Clostridioides difficile
rats = conditions: p.o., cited from earlier work
[3] = tested on: Clostridium difficile 7-6011209; format: cell-based
C. difficile = conditions: published data (footnote a); cited from earlier work
[4] = tested on: Clostridium difficile infection (CDAD); conditions: phase III clinical trials, versus vancomycin; cited from earlier work
mice = conditions: p.o.; cited from earlier work
[5] = Table 3, strain 7-6011209, read-out: C. difficile Strain 7-6011209 MIC
[6] = Table 3, strain 12055, read-out: C. difficile Strain 12055 MIC
[7] = read-out: C. difficile Strain 7-6011209 MIC
[8] = read-out: C. difficile Strain 12055 MIC

| SMILES | MIC ([1]; strain 7-5085357 (ST028)) [µg/mL] | MIC ([1]; strain 7-6011209 (ST002)) [µg/mL] | MIC ([1]; strain 7-6778909 (ST016)) [µg/mL] | MIC ([1]; strain 7-6854508 (ST013)) [µg/mL] | MIC ([1]; strain 7-6870430 (ST001)) [µg/mL] | MIC ([1]; strain 7-7104022 (ST103)) [µg/mL] | MIC ([1]; strain 7-7116411 (ST005)) [µg/mL] | MIC ([1]; strain 7-7124449 (ST009)) [µg/mL] | MIC ([1]; strain 7-7149204 (ST006)) [µg/mL] | MIC ([1]; strain 7-7150288 (ST003)) [µg/mL] | MIC ([1]; strain 7-7150318 (ST059)) [µg/mL] | MIC ([1]; strain 7-7150628 (ST034)) [µg/mL] | MIC ([1]; strain 7-7150997 (ST049)) [µg/mL] | MIC ([1]; strain 7-7154992 (ST139)) [µg/mL] | MIC ([1]; strain 7-7200552 (ST017)) [µg/mL] | MIC ([1]; strain 12055) [µg/mL] | MIC ([1]; strain 12060) [µg/mL] | MIC ([1]; strain 12061) [µg/mL] | MIC ([1]; strain 12063) [µg/mL] | MIC ([1]; strain 12064) [µg/mL] | also measured |
| --- | --- | --- | --- | --- | --- | --- | --- | --- | --- | --- | --- | --- | --- | --- | --- | --- | --- | --- | --- | --- | --- |
| CC(=O)Oc1c(I)cc(I)cc1C(=O)Nc1ccc(Cl)cc1 [Clioxanide] | < 0.008 | < 0.008 | < 0.008 | < 0.008 | < 0.008 | < 0.008 | 0.125 (≈ 0.231 µM) | < 0.008 | < 0.008 | < 0.008 | < 0.008 | < 0.008 | < 0.008 | < 0.008 | < 0.008 | < 0.008 | < 0.008 | < 0.008 | < 0.008 | < 0.008 | MIC ([1]; strain 7-7363761 (ST008)): < 0.008 µg/mL; MIC ([1]; strain 12062): < 0.008 µg/mL; MIC ([1]; strain 12065): < 0.008 µg/mL; MIC ([1]; strain 12066): 0.063 µg/mL (≈ 0.116 µM); MIC [2, 5]: 0.031 µg/mL (≈ 0.0572 µM); MIC [2, 6]: < 0.08 µg/mL |
| Cc1cc(C(C#N)c2ccc(Cl)cc2)c(Cl)cc1NC(=O)c1cc(I)cc(I)c1O (stereo not shown) [Closantel] | 0.016 (≈ 0.0241 µM) | 0.016 (≈ 0.0241 µM) | 0.031 (≈ 0.0468 µM) | 0.25 (≈ 0.377 µM) | 0.031 (≈ 0.0468 µM) | 0.25 (≈ 0.377 µM) | 0.25 (≈ 0.377 µM) | 0.25 (≈ 0.377 µM) | 0.31 (≈ 0.468 µM) | 0.031 (≈ 0.0468 µM) | 0.63 (≈ 0.95 µM) | 0.063 (≈ 0.095 µM) | 0.016 (≈ 0.0241 µM) | 0.063 (≈ 0.095 µM) | 0.5 (≈ 0.754 µM) | 0.063 (≈ 0.095 µM) | 0.125 (≈ 0.189 µM) | 0.063 (≈ 0.095 µM) | 0.031 (≈ 0.0468 µM) | 0.031 (≈ 0.0468 µM) | MIC ([1]; strain 12062): 0.063 µg/mL (≈ 0.095 µM); MIC ([1]; strain 12065): 0.063 µg/mL (≈ 0.095 µM); MIC ([1]; strain 12066): 0.5 µg/mL (≈ 0.754 µM); MIC [2, 5]: 0.125 µg/mL (≈ 0.189 µM); MIC [2, 6]: 0.125 µg/mL (≈ 0.189 µM); LD50 (rats): 262 to 342 mg/kg |
| CCc1c(Cl)c(O)c(Cl)c(O)c1C(=O)O[C@H]1[C@H](O)[C@H](OC)[C@H](OC/C2=C\C=C\C[C@H](O)/C(C)=C/[C@H](CC)[C@@H](O[C@@H]3OC(C)(C)[C@@H](OC(=O)C(C)C)[C@H](O)[C@@H]3O)/C(C)=C/C(C)=C/C[C@@H]([C@@H](C)O)OC2=O)O[C@@H]1C [Fidaxomycin] | < 0.008 | < 0.008 | < 0.008 | < 0.008 | 0.016 (≈ 0.0151 µM) | < 0.008 | 2 (≈ 1.89 µM) | < 0.008 | < 0.008 | < 0.008 | < 0.008 | < 0.008 | < 0.008 | < 0.008 | < 0.008 | < 0.008 | < 0.008 | < 0.008 | < 0.008 | < 0.008 | formation of heat-resistant spores over time [3]: suppressed formation of spores for the first 48 hours of the study; MIC ([1]; strain 7-7363761 (ST008)): < 0.008 µg/mL; MIC ([1]; strain 12062): < 0.008 µg/mL; MIC ([1]; strain 12065): < 0.008 µg/mL; MIC ([1]; strain 12066): < 0.008 µg/mL; Highest MIC observed (C. difficile): 1 ^ μg/mL; MIC90 (C. difficile): 0.5^a μg/mL; clinical cure of CDAD [4]: non-inferior to vancomycin; preventing recurrence of CDAD [4]: superior to vancomycin |
| Cc1ncc([N+](=O)[O-])n1CCO [Metronidazole] | 1 (≈ 5.84 µM) | 0.031 (≈ 0.181 µM) | 0.25 (≈ 1.46 µM) | 1 (≈ 5.84 µM) | 1 (≈ 5.84 µM) | > 8 | > 16 | 2 (≈ 11.7 µM) | 0.5 (≈ 2.92 µM) | 0.063 (≈ 0.368 µM) | 1 (≈ 5.84 µM) | 0.5 (≈ 2.92 µM) | 0.031 (≈ 0.181 µM) | 1 (≈ 5.84 µM) | 2 (≈ 11.7 µM) | 1 (≈ 5.84 µM) | 1 (≈ 5.84 µM) | 1 (≈ 5.84 µM) | 0.25 (≈ 1.46 µM) | 0.031 (≈ 0.181 µM) | MIC ([1]; strain 12065): 1 µg/mL (≈ 5.84 µM); MIC ([1]; strain 12066): 1 µg/mL (≈ 5.84 µM); Highest MIC observed (C. difficile): >32^a μg/mL; MIC90 (C. difficile): 1^a μg/mL |
| O=C(Nc1cc(Cl)cc(Cl)c1O)c1c(O)c(Cl)cc(Cl)c1Cl [Oxyclozanide] | 0.016 (≈ 0.0399 µM) | < 0.008 | < 0.008 | < 0.008 | < 0.008 | < 0.008 | 0.125 (≈ 0.311 µM) | 0.031 (≈ 0.0772 µM) | < 0.008 | < 0.008 | 0.016 (≈ 0.0399 µM) | 0.31 (≈ 0.772 µM) | < 0.008 | < 0.008 | 0.25 (≈ 0.623 µM) | 0.016 (≈ 0.0399 µM) | 0.031 (≈ 0.0772 µM) | 0.016 (≈ 0.0399 µM) | 0.016 (≈ 0.0399 µM) | < 0.008 | MIC ([1]; strain 12062): < 0.008 µg/mL; MIC ([1]; strain 12065): 0.031 µg/mL (≈ 0.0772 µM); MIC ([1]; strain 12066): 0.125 µg/mL (≈ 0.311 µM); MIC [2, 5]: 0.25 µg/mL (≈ 0.623 µM); MIC [2, 6]: 0.25 µg/mL (≈ 0.623 µM); LD50 (rats): 980 to 3519 mg/kg |
| O=C(Nc1ccc(Oc2ccc(Cl)cc2)c(Cl)c1)c1cc(I)cc(I)c1O [Rafoxanide] | 0.016 (≈ 0.0256 µM) | < 0.008 | < 0.008 | < 0.008 | < 0.008 | < 0.008 | 0.031 (≈ 0.0495 µM) | 0.031 (≈ 0.0495 µM) | < 0.008 | < 0.008 | < 0.008 | 0.31 (≈ 0.495 µM) | < 0.008 | 0.016 (≈ 0.0256 µM) | 0.063 (≈ 0.101 µM) | < 0.008 | 0.031 (≈ 0.0495 µM) | 0.016 (≈ 0.0256 µM) | < 0.008 | < 0.008 | formation of heat-resistant spores over time [3]: suppressed formation of spores throughout the 96 hour study period; MIC ([1]; strain 12062): 0.016 µg/mL (≈ 0.0256 µM); MIC ([1]; strain 12065): 0.016 µg/mL (≈ 0.0256 µM); MIC ([1]; strain 12066): 0.063 µg/mL (≈ 0.101 µM); MIC [2, 7]: < 0.08 µg/mL; MIC [2, 8]: < 0.08 µg/mL; LD50 (mice): 232 to 300 mg/kg; LD50, median (rats; median over studies): > 1490 mg/kg |
| O=C(Nc1ccc(Br)cc1)c1cc(Br)cc(Br)c1O [Tribromsalan, 3,4′,5-tribromosalicylanilide] | 0.016 (≈ 0.0356 µM) | < 0.008 | < 0.008 | 0.031 (≈ 0.0689 µM) | 0.016 (≈ 0.0356 µM) | 1 (≈ 2.22 µM) | < 0.008 | 0.063 (≈ 0.14 µM) | < 0.008 | < 0.008 | < 0.008 | 0.031 (≈ 0.0689 µM) | 0.16 (≈ 0.356 µM) | 0.063 (≈ 0.14 µM) | 0.25 (≈ 0.556 µM) | 0.016 (≈ 0.0356 µM) | 0.063 (≈ 0.14 µM) | 0.016 (≈ 0.0356 µM) | 0.016 (≈ 0.0356 µM) | < 0.008 | MIC ([1]; strain 12062): < 0.008 µg/mL; MIC ([1]; strain 12065): 0.016 µg/mL (≈ 0.0356 µM); MIC ([1]; strain 12066): 0.031 µg/mL (≈ 0.0689 µM); MIC [2, 7]: 0.125 µg/mL (≈ 0.278 µM); MIC [2, 8]: 0.25 µg/mL (≈ 0.556 µM) |
